Laboratory results reported in patent US20150126368A1, “METHOD OF PROVIDING PLANT WITH STRESS RESISTANCE” (Nippon Soda Co., Ltd., priority 2012, published 2015).
Like-named read-outs stand apart in the source and are kept apart here.

Key:
Assay type in all cases: in vivo
[1] = tested on: Cucumber (breed: Sagamihanjirohushinari); test: Evaluation test for relief effects of submergence disorder on cucumber; conditions: flood from 2 days, raw weight 11 days after spray
Description: Cucumber (breed: Sagamihanjirohushinari, 2 reprications) grown up to the two leaf stage in a greenhouse was prepared.
(§1) A water dispersible granule of 30% ascorbyl palmitate and pyraclostrobin adjusted to 40% with N,N-dimethylformamide were diluted with tap water to a predetermined concentration, and the diluted solution was sprayed in a sufficient amount. They were subjected to flood conditions up to immediately below the cotyledon from 2 days after the spray treatment, and the raw weights of an above ground part and a root part of cucumber were each measured at the elapsed time of 11 days after the spray treatment. From this, injury relief percentages were computed by the following formula.
(§2) Flood injury relief percentage=((raw weight of each treatment region)−(raw weight of untreated region))/(raw weight of untreated region)×100

Tomato (breed: Momotaro) = test: Evaluation test for relief effects of high temperature injury on tomato; conditions: sprayed on stem and leaf, 2 days 30° C., then 6 days 40° C. daylight/30° C. dark, vs solvent only
Description: N,N-dimethylformamide based solutions were prepared according to the formulations shown in Table 3 to give chemical solutions for the tests.
Tomato (breed: Momotaro) grown up to the 2.5 leaf stage in a greenhouse was prepared.
The above chemical solution was sprayed to the stem and leaf parts of the above tomato nursery plants in a sufficient amount, and then air dried. They were allowed to grow at 30° C. for 2 days under conditions of 16 hours under a daylight condition and 8 hours under a dark condition. Then, they were allowed to grow for 6 days under conditions of 16 hours under a daylight condition at 40° C. and 8 hours under a dark condition at 30° C.
(§3) Disorders were evaluated by 11 levels of disorder indices from 0 (no disorders) to 10 (withering to death).
High temperature injury relief percentages as compared with a region treated with solvent DMF only (Chemical solution 3) were computed by the following formula.
High temperature injury relief percentage=((disorder index of region treated with solvent only)−(disorder index of each treatment region))/(disorder index of region treated with solvent only)×100

Soybean (breed: Enrei) [2] = test: Evaluation test for relief effects of acidity problem on soybean; conditions: hydroponic medium pH 4 from 2 days, disorder index 11 days after spray
Description: Soybean (breed: Enrei, 2 reprications) hydroponically grown up to the two leaf stage in a 100 ml flask was prepared.
A water dispersible granule of 30% ascorbyl palmitate and pyraclostrobin dissolved to 40% with N,N-dimethylformamide were diluted with tap water to a predetermined concentration, and the diluted solution was sprayed over the whole nursery plants in a sufficient amount. The water culture medium was adjusted to pH 4 with 1 N hydrochloric acid at the elapsed time of 2 days after the spray treatment, and the above soybean was continuously allowed to grow hydroponically. Disorder in the soybean was investigated at the elapsed time of 11 days after the spray treatment.
For disorder, a degree of necrosis was evaluated by 11 levels of disorder indices from 0 (no necrosis) to 10 (withering to death). From this, problem relief percentages were computed by the following formula.
Acidity problem relief percentage=((disorder index of untreated region)−(disorder index of each treated region))/(disorder index of untreated region)×100

Tomato (breed: Reiryo) = test: Evaluation test for relief effects of strong light injury on tomato; conditions: summer blazing sun, 4 days after spraying
Description: Tomato (breed: Reiryo, 2 reprications) grown up to the two leaf stage in a greenhouse was prepared.
A water dispersible granule of 30% of ascorbyl palmitate and pyraclostrobin dissolved to 40% N,N-dimethylformamide were diluted with tap water to each of the concentrations described in Table 9, and the diluted solution was sprayed over the whole nursery plants in a sufficient amount. After air dried, they were exposed to strong light under summer blazing sun. A degree of disorder was investigated at the elapsed time of 4 days after the spraying.
For disorder, a degree of necrosis due to light effects was evaluated by 11 levels of disorder indices from 0 (no necrosis) to 10 (withering to death). From this, disorder relief percentages were computed by the following formula.
Injury relief percentage=((disorder index of untreated region)−(disorder index of each treated region))/(disorder index of untreated region)×100

Tomato (breed: Reiyo) = test: Evaluation test for relief effects of low temperature injury on tomato; conditions: one night outside at average 0.5° C.
Description: Tomato (breed: Reiyo, 4 reprications) grown up to the 3.5 leaf stage in a greenhouse was prepared.
A water dispersible granule of 30% ascorbyl palmitate and pyraclostrobin dissolved to 40% with N,N-dimethylformamide were diluted with tap water to a concentration described in Table 7, and the diluted solution was sprayed over the whole nursery plants in a sufficient amount. After air dried, they were transferred to the outside of the greenhouse at an average temperature of 0.5° C. during night to investigate a degree of low temperature injury on the next morning.
Disorders were evaluated by 5 levels of disorder indices of 0 (no disorder) to 4 (complete withering). From this, disorder relief percentages were computed by the following formula.
Low temperature injury relief percentage=(disorder index of untreated region)−(disorder index of each treatment region)/(disorder index of untreated region)×100

Soybean (breed: Enrei) [3] = test: Evaluation test for relief effects of flood injury on soybean; conditions: flood from 2 days, raw weight 11 days after spray
Description: Soybean (breed: Enrei, 2 reprications) grown up to the two leaf stage in a greenhouse was prepared.
as §1, with “soybean” for “cucumber”
as §2

[4] = tested on: Cucumber nursery plants (breed: Sagamihanjiro); test: Evaluation test for relief effects of low temperature injury on cucumber; conditions: spray, 2 days 25° C., then 9 days 10° C. daylight/7° C. dark, vs solvent only
Description: N,N-dimethylformamide based solutions were prepared according to the formulations shown in Tables 5 to give chemical solutions for the tests.
Cucumber nursery plants (breed: Sagamihanjiro) grown up to the 1.5 leaf stage in a greenhouse was prepared.
The above chemical solution was sprayed to the stem and leaf parts of the above cucumber nursery plants in a sufficient amount, and then air dried. They were allowed to grow at 25° C. for 2 days under conditions of 16 hours under a daylight condition and 8 hours under a dark condition. Then, they were allowed to grow for 9 days under conditions of 16 hours under a daylight condition at 10° C. and 8 hours under a dark condition at 7° C.
as §3
Low temperature injury relief percentages as compared with a region treated with solvent DMF only (Chemical solution 3) were computed by the following formula.
Low temperature injury relief percentage=((disorder index of region treated with solvent only)−(disorder index of each treated region))/(disorder index of region treated with solvent only)×100

Pyricularia oryzae = conditions: 11 days after inoculation
[5] = ascorbyl palmitate 1000 ppm spray
[6] = ascorbyl palmitate 800 ppm in DMF
[7] = ascorbyl palmitate 50 ppm spray on rice (Koshihikari) one day before inoculation
[8] = Pyraclostrobin 5 ppm spray on rice (Koshihikari) one day before inoculation

CCCCCCCCCCCCCCCC(=O)OC[C@H](O)[C@H]1OC(=O)C(O)=C1O [ascorbyl palmitate]
relief percents of flood injury in aerial part(%) [1, 5]: 31.9%
relief percents of flood injury in root(%) [1, 5]: 41.5%
relief percents of high-temperature injury (%) (Tomato (breed: Momotaro); [6]): 57%
relief percents of acidity problem(%) (Soybean (breed: Enrei) [2]; [5]): 43.8%
relief percents of strong light injury (%) (Tomato (breed: Reiryo); [5]): 50%
relief percents of low-temperature injury(%) (Tomato (breed: Reiyo); ascorbyl palmitate 500 ppm spray): 100%
relief percents of flood injury in aerial part(%) (Soybean (breed: Enrei) [3]; [5]): 2.8%
relief percents of flood injury in root(%) (Soybean (breed: Enrei) [3]; [5]): 20.4%
relief percents of low-temperature injury(%) [4, 6]: 25%
Number of lesion spots (Pyricularia oryzae; [7]): 30
Preventive value(%) (Pyricularia oryzae; [7]): 9%

COC(=O)N(OC)c1ccccc1COc1ccn(-c2ccc(Cl)cc2)n1 [Pyraclostrobin, reference compound]
relief percents of flood injury in aerial part(%) ([1]; Pyraclostrobin 50 ppm spray): 61.7%
relief percents of flood injury in root(%) ([1]; Pyraclostrobin 50 ppm spray): 39.0%
relief percents of high-temperature injury (%) (Tomato (breed: Momotaro); Pyraclostrobin 40 ppm in DMF): 35%
relief percents of acidity problem(%) (Soybean (breed: Enrei) [2]; Pyraclostrobin 50 ppm spray): 12.5%
relief percents of strong light injury (%) (Tomato (breed: Reiryo); Pyraclostrobin 50 ppm spray): 40%
relief percents of low-temperature injury(%) (Tomato (breed: Reiyo); Pyraclostrobin 50 ppm spray): 25%
relief percents of flood injury in aerial part(%) (Soybean (breed: Enrei) [3]; Pyraclostrobin 50 ppm spray): 0.0%
relief percents of flood injury in root(%) (Soybean (breed: Enrei) [3]; Pyraclostrobin 50 ppm spray): 3.2%
relief percents of low-temperature injury(%) ([4]; Pyraclostrobin 40 ppm in DMF): 19%
Number of lesion spots (Pyricularia oryzae; [8]): 10
Preventive value(%) (Pyricularia oryzae; [8]): 70%
